Measurements from PubChem BioAssay (NCI).
Where “and” joins values, the source holds several entries; their conditions need not be identical. Identical values can stand only once.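 1) Cells in 96-well plates. 2) Compound, 48 h, 5 concentrations. 3) Linear interpolation between surrounding doses. 4) Unreached endpoint = highest concentration. The concentration for 50% growth inhibition is given as GI50. TGI is the concentration that stops growth completely.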

Legend:
Assay in all cases: NCI tumour cell line growth inhibition, 48 h
[1] = system: LOX IMVI melanoma
[2] = system: RXF 393 renal
[3] = system: UACC-62 melanoma
[4] = system: SW-620 colon
[5] = system: OVCAR-8 ovarian
[6] = system: NCI-H460 lung
[7] = system: A498 renal
[8] = system: KM20L2 colon
[9] = system: NCI/ADR-RES ovarian
[10] = system: DMS 114 small cell lung
[11] = system: MCF7 breast
[12] = system: 786-0 renal
[13] = system: SK-MEL-28 melanoma
[14] = system: RPMI-8226 leukemia
[15] = system: SF-539 CNS
[16] = system: IGROV1 ovarian
[17] = system: M19-MEL melanoma
[18] = system: ACHN renal
[19] = system: HL-60(TB) leukemia
[20] = system: BT-549 breast
[21] = system: HOP-18 NSCLC
[22] = system: UO-31 renal
[23] = system: K-562 leukemia
[24] = system: M14 melanoma
[25] = system: T-47D breast
[26] = system: UACC-257 melanoma
[27] = system: SK-MEL-5 melanoma
[28] = system: PC-3 prostate
[29] = system: HT29 colon
[30] = system: EKVX NSCLC
[31] = system: CCRF-CEM leukemia
[32] = system: DMS 273 small cell lung
[33] = system: NCI-H23 lung
[34] = system: OVCAR-5 ovarian
[35] = system: MDA-N
[36] = system: SN12K1 renal
[37] = system: MOLT-4 leukemia
[38] = system: CAKI-1 renal
[39] = system: SNB-19 CNS
[40] = system: HCT-15 colon
[41] = system: HOP-92 NSCLC
[42] = system: SN12C renal
[43] = system: SK-OV-3 ovarian
[44] = system: KM12 colon
[45] = system: SNB-78 CNS
[46] = system: P388/ADR leukemia
[47] = system: P388 leukemia
[48] = system: XF 498 CNS
[49] = system: SF-295 CNS
[50] = system: OVCAR-3 ovarian
[51] = system: OVCAR-4 ovarian
[52] = system: DLD-1 colon
[53] = system: DU-145 prostate
[54] = system: HCT-116 colon
[55] = system: NCI-H226 lung
[56] = system: HOP-62 NSCLC
[57] = system: SK-MEL-2 melanoma
[58] = system: SNB-75 CNS
[59] = system: U251 CNS
[60] = system: MDA-MB-231 breast
[61] = system: MDA-MB-435
[62] = system: A549 NSCLC
[63] = system: TK-10 renal
[64] = system: RXF-631 renal
[65] = system: MALME-3M melanoma
[66] = system: HS 578T breast
[67] = system: COLO 205 colon

SMILES: CC[C@](O)(C(=O)O)c1cc2n(c(=O)c1CO)Cc1cc3ccccc3nc1-2
- GI50 [1]: 0.00507 µM and 0.0264 µM
- TGI [1]: 0.307 µM and 0.686 µM and 0.652 µM
- GI50 [2]: 0.0278 µM and < 0.0225 µM
- TGI [2]: 1.1 µM and 0.476 µM and 0.15 µM
- GI50 [3]: 0.00348 µM
- TGI [3]: 0.121 µM and 0.0422 µM and 0.0555 µM
- GI50 [4]: 0.0948 µM and 0.0713 µM and 0.025 µM
- TGI [4]: 25 µM and 34.1 µM
- GI50 [5]: 0.0292 µM and 0.0262 µM and 0.0353 µM
- GI50 [6]: < 0.0025 µM
- TGI [6]: 0.0234 µM and 0.125 µM and 0.0345 µM
- GI50 [7]: 0.015 µM and 0.0448 µM
- TGI [7]: 0.114 µM and 0.261 µM and 0.145 µM
- GI50 [8]: 0.209 µM
- TGI [8]: 3.96 µM
- GI50 [9]: 0.00661 µM and 0.012 µM
- TGI [9]: 0.224 µM and 0.121 µM and 0.0889 µM
- TGI [10]: 1.11 µM and 0.412 µM
- TGI [11]: 3.43 µM
- TGI [12]: 0.0525 µM
- GI50 [13]: 0.147 µM and 0.169 µM and 0.0493 µM
- GI50 [14]: 0.00677 µM and 0.0458 µM
- GI50 [15]: < 0.0025 µM
- GI50 [16]: 0.0299 µM and 0.197 µM
- TGI [17]: 0.547 µM
- TGI [18]: 0.0211 µM
- GI50 [19]: < 0.0025 µM
- TGI [19]: 0.347 µM and 2.5 µM
- GI50 [20]: 0.107 µM
- TGI [20]: 11.5 µM and 18.5 µM
- TGI [21]: 4.88 µM
- GI50 [22]: 0.0189 µM
- TGI [22]: 0.161 µM and 0.167 µM
- GI50 [23]: 0.0383 µM and 0.137 µM and 0.0357 µM
- TGI [23]: 12.9 µM and 88 µM
- GI50 [24]: 0.0108 µM
- TGI [24]: 0.0511 µM and 0.181 µM
- GI50 [25]: < 0.0025 µM
- TGI [25]: 0.0755 µM
- GI50 [26]: 0.0236 µM and 0.0374 µM and 0.0873 µM
- TGI [26]: 0.278 µM and 0.953 µM and 0.582 µM
- TGI [27]: 0.0383 µM and 0.156 µM and 0.0896 µM
- GI50 [28]: 0.113 µM
- TGI [28]: 5.17 µM
- GI50 [29]: 0.0354 µM and 0.11 µM
- GI50 [30]: 0.283 µM and 0.63 µM
- GI50 [31]: < 0.0025 µM
- TGI [31]: 4.04 µM
- GI50 [32]: 0.0316 µM
- TGI [32]: 0.132 µM and 0.0963 µM
- GI50 [33]: 0.0058 µM and 0.0215 µM
- GI50 [34]: 0.0691 µM and 0.104 µM
- TGI [34]: 0.784 µM and 0.501 µM
- TGI [35]: 0.605 µM
- TGI [36]: 2.73 µM
- GI50 [37]: < 0.0025 µM
- GI50 [38]: < 0.0025 µM
- GI50 [39]: 0.00337 µM and 0.02 µM
- GI50 [40]: 0.26 µM and 0.0703 µM
- TGI [40]: 25 µM and 7.92 µM
- GI50 [41]: 0.163 µM
- TGI [41]: 5.67 µM and 0.567 µM
- GI50 [42]: 0.00365 µM and < 0.0193 µM
- TGI [42]: 0.822 µM and 0.121 µM
- GI50 [43]: 0.0283 µM and 0.0176 µM
- GI50 [44]: 0.132 µM and 0.228 µM and 0.54 µM
- GI50 [45]: 0.242 µM and 0.135 µM
- TGI [46]: 25.6 µM
- TGI [47]: 0.294 µM
- GI50 [48]: 0.614 µM
- TGI [48]: 4.41 µM and 0.793 µM
- GI50 [49]: 0.0029 µM and < 0.0134 µM
- TGI [49]: 0.101 µM and 0.0956 µM and 0.107 µM
- GI50 [50]: 0.0775 µM and 0.268 µM and 0.0965 µM
- TGI [50]: 0.323 µM and 1.18 µM and 0.866 µM
- GI50 [51]: 0.305 µM and 0.0715 µM
- TGI [51]: 7.5 µM and 0.856 µM
- GI50 [52]: 0.311 µM and 0.337 µM
- TGI [52]: 30 µM
- GI50 [53]: < 0.0025 µM
- TGI [53]: 0.559 µM and 0.417 µM
- TGI [54]: 0.622 µM
- TGI [55]: 0.866 µM and 0.332 µM and 1.62 µM
- GI50 [56]: 0.025 µM
- GI50 [57]: 0.314 µM and 0.39 µM
- TGI [57]: 1.7 µM and 1.46 µM and 0.699 µM
- GI50 [58]: 0.00391 µM and 0.016 µM
- TGI [58]: 0.201 µM and 0.0714 µM and 0.343 µM
- GI50 [59]: < 0.0025 µM and 0.0107 µM
- TGI [59]: 0.0386 µM and 0.164 µM and 0.0615 µM
- GI50 [60]: 0.969 µM
- TGI [60]: 6.84 µM
- GI50 [61]: 0.101 µM
- TGI [61]: 0.632 µM and 0.516 µM
- GI50 [62]: 0.0057 µM and < 0.0178 µM
- TGI [62]: 2.6 µM and 1.48 µM and 0.42 µM
- GI50 [63]: 1.1 µM
- TGI [63]: 4.38 µM and > 24.8 µM
- TGI [64]: 1.04 µM
- GI50 [65]: 0.0642 µM and 0.272 µM
- TGI [65]: 4.75 µM and 4.12 µM and 0.807 µM
- GI50 [66]: 1.48 µM
- TGI [66]: 25 µM and 13.7 µM
- GI50 [67]: 0.0556 µM and 0.296 µM
- TGI [67]: 0.779 µM and 2.21 µM and 3.85 µM
